Measurements: patent US5525627A, “Esters of acyl carnitines with long-chain aliphatic alcohols and pharmaceutical compositions containing same having antimycotic activity” (Sigma-Tau Industrie Farmaceutiche Riunite S.p.A., priority 1992, dated 1996)
Several values for one entry are separate records, joined by “and”; a condition that tells them apart may be missing. Identical values can stand only once.

Tests used:
[1] = Assessment of behaviour and mortality in mice (Irwin's method); set-up: species or system mice (male Crl:(CD-1)(ICR)BR); conditions: mouse, in vivo; oral, dose 1000 (unit inferred), 4 animals/dose
Method: (§1) ASSESSMENT OF BEHAVIOUR AND MORTALITY IN MICE
(§2) The assessment of normal behaviour in mice was carried out following S. Irwin's method (Psychopharmacologia, 13, 222 [1968]). This method allows alterations in some behavioural, neurophysiologic and neurovegetative parameters to be detected, which are directly observable by the researcher. The study was conducted using male Crl:(CD-1)(ICR)BR mice (Charles River-Italy) weighing 22-25 g. following oral administration of the compounds suspended in carboxymethylcellulose (0.5% by weight in H2 O) to groups of 4 animals/dose.
(§3) The animals were continously kept under observation for five hours following treatment and twice a day in the subsequent five days. Mortality was also observed during the overall test period.

[2] = system: mice; assay: as above; set-up: species or system mice (male Crl:(CD-1)(ICR)BR); conditions: mouse, in vivo, po
Method: as §1, §2, §3

[3] = Test 2: weight of murine lymphoid organs after repeated oral administrations; assay type: in vivo, mice (male B6 D2 F1); conditions: 100 mg/kg/day oral, 7 consecutive days; x ± S.E.
Method: Test 2: Evaluation of the effect of repeated oral administrations of ST 722 on the weight of murine lymphoid organs (spleen and thymus).
Male B6 D2 F1 mice (C. River) aged 7 weeks (7-8 animals each group) were orally treated with the substance ST 722 at the dose of 100 mg/kg/day for 7 consecutive days. Twenty-four hours after the last administration, the animals were sacrificed, the organs removed and weighed.

[4] = system: Candida albicans (PG); assay: MIC and MFC for yeast and yeast-like strains; assay type: cell-based
Summary of the method: (§4)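 Candida, Cryptococcus, Saccharomyces and Torulopsis strains tested by broth microdilution in Yeast Nitrogen Base with 0.15% asparagine and 1.0% glucose, buffered with 0.165 M MOPS; final inoculum about 5.0×10^4 CFU/ml from overnight (Cryptococcus 48-hour) Sabouraud cultures. MFC from spot-transfer of wells without visible growth onto Sabouraud agar.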

[5] = system: Candida albicans (ATCC 2091); assay: MIC for yeast and yeast-like strains; assay type: cell-based; conditions: ATCC2091, 48 hours, 35° C., read-out: Minimal Inhibitory Concentration (MIC)
Summary of the method: (§5)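 MIC values derive from microdilution testing at a final fungal density near 5.0×10^4 CFU/ml. The medium was Yeast Nitrogen Base supplemented with 0.15% asparagine and 1.0% glucose, buffered with 0.165 M MOPS.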

[6] = system: Candida albicans (ISS 1); assay: MIC for yeast and yeast-like strains; assay type: cell-based; conditions: 48 hours, 35° C., read-out: Minimal Inhibitory Concentration (MIC)
Summary of the method: as §5

[7] = system: Candida glabrata (ISS 1); assay: MIC for yeast and yeast-like strains; assay type: cell-based; conditions: Nakaseomyces glabratus; 48 hours, 35° C.; read-out: Minimal Inhibitory Concentration (MIC)
Summary of the method: as §5

[8] = system: Candida guilliermondii (ISS 1); assay: MIC for yeast and yeast-like strains; assay type: cell-based; conditions: Meyerozyma guilliermondii; 48 hours, 35° C.; read-out: Minimal Inhibitory Concentration (MIC)
Summary of the method: as §5

[9] = system: Candida parapsilosis (ISS 1); assay: MIC for yeast and yeast-like strains; assay type: cell-based; conditions: Lodderomyces parapsilosis; 48 hours, 35° C.; read-out: Minimal Inhibitory Concentration (MIC)
Summary of the method: as §5

[10] = system: Candida pseudotropicalis (EC 1); assay: MIC for yeast and yeast-like strains; assay type: cell-based; conditions: Kluyveromyces marxianus; 48 hours, 35° C.; read-out: Minimal Inhibitory Concentration (MIC)
Summary of the method: as §5

[11] = system: Candida tropicalis (ISS 1); assay: MIC for yeast and yeast-like strains; assay type: cell-based; conditions: 48 hours, 35° C., read-out: Minimal Inhibitory Concentration (MIC)
Summary of the method: as §5

[12] = system: Cryptococcus neoformans (ISS 1); assay: MIC for yeast and yeast-like strains; assay type: cell-based; conditions: 48 hours, 35° C., read-out: Minimal Inhibitory Concentration (MIC)
Summary of the method: as §5

[13] = system: yeast-like fungi; assay: MIC / MFC for yeast-like fungi, all strains; assay type: cell-based, Candida, Cryptococcus, Saccharomyces, Torulopsis; conditions: versus susceptible strains; read-out: Mean MIC values
Summary of the method: as §4

[14] = system: C. albicans ISS 1; assay: Experimental subcutaneous infection with Candida albicans in mice; assay type: in vivo, Candida albicans in mice (male CD1 outbred)
Method: Male CD1 outbred mice (IFFA Credo) aged 8 weeks were used (4 animals per group).
A pathogenic strain of Candida was used, namely C. albicans ISS 1.
The infected animals were treated with ST 722 dissolved in saline, and Miconazole diluted in saline from a stock solution containing 1% Dimethyl Formamide.
From an overnight broth culture of C. albicans in Sabouraud broth, a fungal suspension was prepared in sterile saline containing 5.0×10^5 cells/mi. An inoculum of 0.5 ml of this suspension was injected subcutaneously into the abdominal wall of each animal.
The compounds were then administered by subcutaneous injection in the same area of the fungal challenge at the dose of 50 mcg (in 0.2 ml of saline) immediately after the inoculum and following 48 and 96 hours (150 total mcg per animal).
Then, 48 hours following the last treatment (6 days after the challenge with Candida), the animals were sacrificed, and the abdominal wall as well as the peritoneum were dissected out.
The excised tissues were then homogenized in 5 ml of sterile saline with a Potter-Elvehjem tissue grinder. The resulting suspensions, appropriately diluted, where plated onto Petri dishes containing a selective agar medium (BIGGY agar), which allows to easily detect the yeast Colony Forming Units (CFU/ml).
The number of colonies scored in a series of dilutions for each single sample consents to calculate the number of yeast cells present in the infected tissue sample as follows: [formula] Where Zi is the number of dilutions performed, Ni is the number of plates prepared for each dilution, and Ci is the total number of yeast cells scored in each dilution.

CCCCCCCCCCCOC(=O)C[C@H](C[N+](C)(C)C)OC(=O)CC(C)C [ST 722, isovaleryl-L-carnitine undecyl ester chloride]
mortality at 120 h [1]: 0%
Symptoms [2]: salivation, diarrhoea
Body weight [3]: 22.74 ± 0.37 g
Spleen weight [3]: 77.88 ± 2.38 mg
Thymus weight [3]: 52.88 ± 3.20 mg
MFC ([4]; 48 h, C. albicans PG): 3.12 µg/mL
MIC ([4]; 48 hours, 35° C., read-out: Minimal Inhibitory Concentration (MIC)): 3.12 µg/mL
MIC [5]: 3.12 µg/mL
MIC [6]: 1.56 µg/mL
MIC [7]: 6.25 µg/mL
MIC [8]: 6.25 µg/mL
MIC [9]: 6.25 µg/mL
MIC [10]: 6.25 µg/mL
MIC [11]: 3.12 µg/mL
MIC [12]: 3.12 µg/mL
MIC [13]: 3.76 µg/mL
CFU/mouse ([14]; individual samples 1-4, 50 mcg s.c. at 0, 48 and 96 hours (150 total mcg per animal)): sterile and 1.36 × 10^2 CFU/mouse
effect on the infection with Candida ([14]; s.c., 150 total mcg per animal): substantially inhibits the infection with Candida
sterile samples out of 4 ([14]; s.c., 150 total mcg per animal): 3 samples
